Data as given in DBAASP.
Converted amounts (≈) assume the structure as drawn.

Tests used:
Assay in all cases: ≥ marks a high value that may be exact or a test limit, other limits are often not marked, values filed in µg/mL are converted to µM
[1] = tested on: Acinetobacter calcoaceticus
Bacillus cereus = tested on: Bacillus cereus
Bacillus pumilus = tested on: Bacillus pumilus
[2] = tested on: Candida albicans ATCC 2002
[3] = tested on: Escherichia coli ATCC 25922
Pseudomonas aeruginosa = tested on: Pseudomonas aeruginosa
Shigella dysenteriae = tested on: Shigella dysenteriae
[4] = tested on: Staphylococcus aureus ATCC 2592
[5] = tested on: Acinetobacter baumannii ATCC 19606R
[6] = tested on: Acinetobacter baumannii ATCC 19606
[7] = tested on: Batrachochytrium dendrobatidis
[8] = tested on: Enterococcus faecalis ATCC 29212
[9] = tested on: Enterococcus faecalis CDC 21
[10] = tested on: Enterococcus faecium 94-132
Enterococcus faecium = tested on: Enterococcus faecium
Escherichia coli BAS 849 = tested on: Escherichia coli BAS 849
Escherichia coli ML-35p = tested on: Escherichia coli ML-35p
Escherichia coli mcr106 = tested on: Escherichia coli mcr106
[11] = tested on: Klebsiella pneumoniae ATCC 13883
Klebsiella pneumoniae = tested on: Klebsiella pneumoniae
[12] = tested on: Listeria monocytogenes EGD
Mycobacterium avium = tested on: Mycobacterium avium
[13] = tested on: Mycobacterium tuberculosis H37Rv
[14] = tested on: Mycobacterium tuberculosis
[15] = tested on: Pseudomonas aeruginosa ATCC 27853
[16] = tested on: Pseudomonas aeruginosa MR2123
[17] = tested on: Pseudomonas aeruginosa MR3007
[18] = tested on: Pseudomonas aeruginosa SBI-N
[19] = tested on: Salmonella enterica serovar typhimurium MS7953s
[20] = tested on: Salmonella enterica subsp. enterica serovar Typhimurium ATCC 14028s
[21] = tested on: Staphylococcus aureus 28841
[22] = tested on: Staphylococcus aureus 30371
[23] = tested on: Staphylococcus aureus 930918-3
[24] = tested on: Staphylococcus aureus ATCC 25923
[25] = tested on: Staphylococcus aureus ATCC 29213
[26] = tested on: Streptococcus agalactiae ATCC 12386
[27] = tested on: Psychrobacter faecalis X29
[28] = tested on: Rhodococcus rhodochrous X15
[29] = tested on: Acinetobacter baumannii b-01
[30] = tested on: Acinetobacter baumannii b-02
[31] = tested on: Acinetobacter baumannii b-03
[32] = tested on: Acinetobacter baumannii b-04
[33] = tested on: Cryptococcus neoformans ATCC 208821
Fusarium oxysporum = tested on: Fusarium oxysporum
Fusarium solani = tested on: Fusarium solani
[34] = tested on: Pseudomonas aeruginosa ATCC 9027
[35] = tested on: Staphylococcus aureus USA 100
[36] = tested on: Staphylococcus aureus USA 300

SMILES: CC[C@H](C)[C@H](NC(=O)[C@@H]1CCCN1C(=O)[C@H](Cc1ccccc1)NC(=O)[C@@H](N)Cc1ccccc1)C(=O)N[C@H](C(=O)NCC(=O)N[C@@H](CCCCN)C(=O)N[C@@H](CC(C)C)C(=O)N[C@@H](CC(C)C)C(=O)N[C@@H](Cc1ccccc1)C(=O)NCC(=O)N[C@@H](CC(C)C)C(=O)N[C@@H](CC(C)C)C(N)=O)C(C)C [FFPIVGKLLFGLL]
- MIC [1]: ≥ 41 µM
- MIC (Bacillus cereus): ≥ 51.2 µM
- MIC (Bacillus pumilus): 10.2 µM (≈ 15 µg/mL)
- MIC [2]: 3.42 µM (≈ 5 µg/mL)
- MIC [3]: 10.2 µM (≈ 15 µg/mL)
- MIC (Pseudomonas aeruginosa): 5.12 µM (≈ 7.5 µg/mL)
- MIC (Shigella dysenteriae): 20.5 µM (≈ 30 µg/mL)
- MIC [4]: 5.12 µM (≈ 7.5 µg/mL)

SMILES: CC[C@H](C)[C@H](NC(=O)CN)C(=O)NCC(=O)N[C@@H](CCCCN)C(=O)N[C@@H](Cc1ccccc1)C(=O)N[C@@H](CC(C)C)C(=O)N[C@@H](Cc1c[nH]cn1)C(=O)N[C@@H](CO)C(=O)N[C@@H](C)C(=O)NCC(=O)N[C@@H](CCCCN)C(=O)N[C@@H](Cc1ccccc1)C(=O)NCC(=O)N[C@@H](CCCCN)C(=O)N[C@@H](C)C(=O)N[C@@H](Cc1ccccc1)C(=O)N[C@H](C(=O)NCC(=O)N[C@@H](CCC(=O)O)C(=O)N[C@H](C(=O)N[C@@H](CCSC)C(=O)N[C@@H](CCCCN)C(=O)N[C@@H](CO)C(=O)O)[C@@H](C)CC)C(C)C [GIGKFLHSAGKFGKAFVGEIMKS]
- MIC [5]: 26.6 µM (≈ 64 µg/mL)
- MIC [6]: 26.6 µM (≈ 64 µg/mL)
- MIC [7]: ≥ 47 µM
- MIC [8]: > 207 µM
- MIC [9]: 3.03 µM (≈ 7.3 µg/mL)
- MIC [10]: 1.16 µM (≈ 2.8 µg/mL)
- MIC (Enterococcus faecium): 1.66 µM (≈ 4 µg/mL)
- MIC [3]: 104 µM (≈ 250 µg/mL)
- MIC (Escherichia coli BAS 849): 0.29 µM (≈ 0.7 µg/mL)
- MIC (Escherichia coli ML-35p): 0.29 µM (≈ 0.7 µg/mL)
- MIC (Escherichia coli mcr106): 0.373 µM (≈ 0.9 µg/mL)
- MIC [11]: ≥ 104 µM
- MIC (Klebsiella pneumoniae): 0.747 µM (≈ 1.8 µg/mL)
- MIC [12]: 1.91 µM (≈ 4.6 µg/mL)
- MIC (Mycobacterium avium): ≥ 53.1 µM
- MIC [13]: ≥ 498 µM
- MIC [14]: ≥ 53.1 µM
- MIC [15]: > 207 µM
- MIC [16]: 0.166 µM (≈ 0.4 µg/mL)
- MIC [17]: 0.207 µM (≈ 0.5 µg/mL)
- MIC [18]: 0.166 µM (≈ 0.4 µg/mL)
- MIC [19]: 0.249 µM (≈ 0.6 µg/mL)
- MIC [20]: 0.498 µM (≈ 1.2 µg/mL)
- MIC [21]: ≥ 39.3 µM
- MIC [22]: ≥ 83 µM
- MIC [23]: 9.13 µM (≈ 22 µg/mL)
- MIC [24]: > 207 µM
- MIC [25]: > 207 µM
- MIC [26]: 31.1 µM (≈ 75 µg/mL)

SMILES: CC[C@H](C)[C@H](NC(=O)[C@H](C)NC(=O)[C@@H](NC(=O)[C@H](CC(=O)O)NC(=O)[C@H](CCCCN)NC(=O)[C@H](Cc1ccccc1)NC(=O)[C@@H](NC(=O)[C@H](CC(=O)O)NC(=O)[C@H](CC(C)C)NC(=O)[C@@H](NC(=O)CN)C(C)C)[C@@H](C)O)C(C)C)C(=O)NCC(=O)N[C@H](C(=O)N[C@@H](C)C(=O)N[C@@H](CCCCN)C(=O)NCC(=O)N[C@@H](C)C(=O)NCC(=O)N[C@H](C(=O)NCC(=O)N[C@H](C(=O)N[C@@H](CC(C)C)C(=O)N[C@@H](CCCCN)C(=O)N[C@@H](C)C(=O)N[C@@H](CC(C)C)C(=O)N[C@@H](CC(C)C)C(=O)N[C@H]1CSSC[C@@H](C(=O)O)NC(=O)[C@H](CO)NC(=O)[C@H](CCCCN)NC(=O)[C@H](CC(=O)O)NC(=O)[C@H](CC(C)C)NC(=O)[C@H](CCCCN)NC1=O)C(C)C)[C@@H](C)O)C(C)C [GVLDTFKDVAIGVAKGAGTGVLKALLCKLDKSC]
- MIC [27]: 15 µM (≈ 49.3 µg/mL)
- MIC [28]: 30 µM (≈ 98.7 µg/mL)
- MIC [4]: ≥ 60 µM

SMILES: CC[C@H](C)[C@H](NC(=O)[C@H](Cc1ccccc1)NC(=O)[C@H](CO)NC(=O)[C@H](CCCCN)NC(=O)[C@H](Cc1c[nH]c2ccccc12)NC(=O)[C@@H](N)CCCCN)C(=O)N[C@@H](CCCCN)C(=O)N[C@@H](CCCCN)C(=O)N[C@@H](CC(C)C)C(=O)N[C@H](C(=O)N[C@@H](CO)C(=O)N[C@@H](CCCCN)C(=O)N[C@@H](Cc1ccccc1)C(=O)N[C@@H](CC(C)C)C(=O)N[C@@H](Cc1cnc[nH]1)C(=O)N[C@@H](CO)C(=O)N[C@@H](C)C(=O)N[C@@H](CCCCN)C(=O)N[C@@H](CCCCN)C(=O)N[C@@H](Cc1ccccc1)C(N)=O)[C@@H](C)O [KWKSFIKKLTSKFLHSAKKF]
- MIC [29]: 1.27 µM (≈ 3.12 µg/mL)
- MIC [30]: 2.55 µM (≈ 6.25 µg/mL)
- MIC [31]: 2.55 µM (≈ 6.25 µg/mL)
- MIC [32]: 1.27 µM (≈ 3.12 µg/mL)
- MIC (Pseudomonas aeruginosa): 1.27 µM (≈ 3.12 µg/mL)

SMILES: NC(=O)[C@H](Cc1c[nH]c2ccccc12)NC(=O)[C@H](CCCN=C(N)N)NC(=O)[C@H](Cc1c[nH]c2ccccc12)NC(=O)[C@H](CCCN=C(N)N)NC(=O)[C@H](Cc1c[nH]c2ccccc12)NC(=O)[C@H](CCCN=C(N)N)NC(=O)[C@H](Cc1c[nH]c2ccccc12)NC(=O)[C@@H](N)CCCN=C(N)N [RWRWRWRW]
- MIC [33]: 23.1 µM (≈ 32 µg/mL)
- MIC (Fusarium oxysporum): 16 µM (≈ 22.2 µg/mL)
- MIC (Fusarium solani): 8 µM (≈ 11.1 µg/mL)
- MIC [34]: 50 µM (≈ 69.3 µg/mL)
- MIC [35]: 6.25 µM (≈ 8.67 µg/mL)
- MIC [36]: 12.5 µM (≈ 17.3 µg/mL)
